Results taken from US10897901B2, “Herbicidal composition” (FMC Corporation, priority 2007, dated 2021).

What was measured:
Type in all cases: in vivo
crabgrass (Digitaria sp) = assay: Example 4 post-emergence greenhouse pot test, crabgrass; conditions: 0.25 lb ai/acre
Procedure: (§1) Test compositions containing sulfentrazone (75 DF formulation), quniclorac, (DRIVE® 75 DF Herbicide) or mixtures of sulfentrazone and quinclorac at ratios of 1:1 to 1:5, were diluted with water to provide the appropriate test rate concentrations. A nonionic surfactant (0.25%) was added to each test solution. The test weeds include crabgrass (Digitaria sp), Chickweed (Stellaria media), Hemp Sesbania (Sesbania exaltata), Kochia (Kochia scoparia), Ivyleaf Morningglory (Ipomoea hederacea), Redroot Pigweed (Amaranthus retroflexus) and yellow nutsedge (Cyperus esculentusi).
(§2) For post-emergence testing, three disposable 3 inch square pots for each rate of application of each herbicide were filled with a soil, comprised of peat moss, vermiculite, bark ash, pine bark, limestone and a wetting agent, to which 8 to 10 seeds were planted. The pots were placed in a greenhouse and watered daily, thus allowing the seeds to germinate and the foliage to develop for 22 days, 3 months for Kochia.
(§3) Pots designated for treatment were placed on a conveyor belt and the conveyor belt fed under a spray nozzle mounted about ten inches above the foliage. The spray of herbicidal solution was commenced and once stabilized; the pots were passed under the spray at a speed to receive a coverage equivalent of 30 gallons per acre. The application rates are those shown in Table 4 below for the individual herbicidal solutions and the mixture of sulfentrazone and quinclorac. The post-emergence pots were immediately placed in the green-house and not watered until 24 hours after treatment with the test solution. Thereafter they were regularly watered at ground level. The control of weeds was evaluated in each experimental test from 2 to 20 days after treatment (DAT). The results, shown as an average of the replications, were compared with results observed in untreated control pots in the same tests.
(§4) Percent control was determined by a method similar to the 0 to 100 rating system disclosed in “Research Methods in Weed Science,” 2nd ed., B. Truelove, Ed.; Southern Weed Science Society; Auburn University, Auburn, Ala., 1977.

[1] = system: White Clover (Trifolium repens); assay: Example 1 post-emergent turf plot test, clover; conditions: 0.57 lb ai/acre
Procedure: The experimental design used randomized plots with post-emergent treatment and three replications per test trial. The size of each experimental plot was 4 feet by 6 feet. The application of each test composition was performed with pressurized back-pack sprayers, calibrated to spray 200 gallons per acre. Test compositions containing sulfentrazone (DISMISS™ Turf Herbicide), quniclorac, (FACET® 75 DF herbicide) or a mixture of sulfentrazone and quinclorac in a 1:3 ratio, prepared as described above, were diluted with water to provide the appropriate test rate concentrations.
The control of weeds was evaluated in each experimental plot from 7 to 41 days after treatment (DAT) of each test rate. The results, shown as an average of the replications, were compared with results observed in untreated control plots in the same trials.

[2] = system: yellow nutsedge (Cyperus esculentusi); assay: Example 3 post-emergence greenhouse pot test, nutsedge
Procedure: Test compositions containing sulfentrazone (DISMISS™ Turf Herbicide), quniclorac, (DRIVE® 75 DF Herbicide) or mixture of sulfentrazone and quinclorac in a three to one ratio, prepared as described above, were diluted with water to provide the appropriate test rate concentrations. A nonionic surfactant (0.25%) was added to each test solution.
The test weeds include Red River crabgrass (Digitaria ciliaris) and yellow nutsedge (Cyperus esculentusi).
as §2, with “develop.” for “develop for 22 days, 3 months for Kochia.”
as §3, with “Table 3” for “Table 4”, “from 1” for “from 2”, “to 22” for “to 20”
as §4

[3] = system: Chickweed (Stellaria media); assay: Example 4 post-emergence greenhouse pot test, chickweed; conditions: 0.25 lb ai/acre
Procedure: as §1, §2, §3, §4

For `Cc1nn(-c2cc(NS(C)(=O)=O)c(Cl)cc2Cl)c(=O)n1C(F)F` [A, N-[2,4-dichloro-5-[4-(difluoromethyl)-4,5-dihydro-3-methyl-5-oxo-1H-1,2,4-triazol-1-yl]phenyl]methanesulfonamide], the Percent Control (crabgrass (Digitaria sp); 2 DAT) was 10%, the Percent Control (crabgrass (Digitaria sp); 7 DAT) was 10% and the Percent Control (crabgrass (Digitaria sp); 14 DAT) was 5%. For the same compound, the Percent Control (crabgrass (Digitaria sp); 20 DAT) was 5%, the “Percent Control” value ([1]; 7 DAT) was 59% and the “Percent Control” value ([1]; 14 DAT) was 63%. The “Percent Control” value ([1]; 21 DAT) was 59%, the “Percent Control” value ([1]; 28 DAT) was 52% and the “Percent Control” value ([2]; 1-5 leaf stage, 7 days old, 0.125 lb ai/acre, 1 DAT) was 50%. For the same compound, the “Percent Control” value ([2]; 1-5 leaf stage, 7 days old, 0.125 lb ai/acre, 3 DAT) was 50%, the “Percent Control” value ([2]; 1-5 leaf stage, 7 days old, 0.125 lb ai/acre, 7 DAT) was 63% and the “Percent Control” value ([2]; 1-5 leaf stage, 7 days old, 0.125 lb ai/acre, 14 DAT) was 70%. The “Percent Control” value ([2]; 1-5 leaf stage, 7 days old, 0.125 lb ai/acre, 21 DAT) was 67%, the “Percent Control” value ([2]; 1-5 leaf stage, 7 days old, 0.25 lb ai/acre, 1 DAT) was 70% and the “Percent Control” value ([2]; 1-5 leaf stage, 7 days old, 0.25 lb ai/acre, 3 DAT) was 85%. The “Percent Control” value ([2]; 1-5 leaf stage, 7 days old, 0.25 lb ai/acre, 7 DAT) was 77%, the “Percent Control” value ([2]; 1-5 leaf stage, 7 days old, 0.25 lb ai/acre, 14 DAT) was 68% and the “Percent Control” value ([2]; 1-5 leaf stage, 7 days old, 0.25 lb ai/acre, 21 DAT) was 50%. For the same compound, the “Percent Control” value ([2]; 1-5 leaf stage, 7 days old, 0.375 lb ai/acre, 1 DAT) was 75%, the “Percent Control” value ([2]; 1-5 leaf stage, 7 days old, 0.375 lb ai/acre, 3 DAT) was 91% and the “Percent Control” value ([2]; 1-5 leaf stage, 7 days old, 0.375 lb ai/acre, 7 DAT) was 95%. The “Percent Control” value ([2]; 1-5 leaf stage, 7 days old, 0.375 lb ai/acre, 14 DAT) was 73%, the “Percent Control” value ([2]; 1-5 leaf stage, 7 days old, 0.375 lb ai/acre, 21 DAT) was 70% and the “Percent Control” value ([2]; 5-7 leaves, cut to 6 cm tall, 28 days old, 0.125 lb ai/acre, 1 DAT) was 0%. For the same compound, the “Percent Control” value ([2]; 5-7 leaves, cut to 6 cm tall, 28 days old, 0.125 lb ai/acre, 3 DAT) was 80%, the “Percent Control” value ([2]; 5-7 leaves, cut to 6 cm tall, 28 days old, 0.125 lb ai/acre, 7 DAT) was 85% and the “Percent Control” value ([2]; 5-7 leaves, cut to 6 cm tall, 28 days old, 0.125 lb ai/acre, 14 DAT) was 70%. For the same compound, the “Percent Control” value ([2]; 5-7 leaves, cut to 6 cm tall, 28 days old, 0.125 lb ai/acre, 21 DAT) was 60%, the “Percent Control” value ([2]; 5-7 leaves, cut to 6 cm tall, 28 days old, 0.25 lb ai/acre, 1 DAT) was 0% and the “Percent Control” value ([2]; 5-7 leaves, cut to 6 cm tall, 28 days old, 0.25 lb ai/acre, 3 DAT) was 75%. The “Percent Control” value ([2]; 5-7 leaves, cut to 6 cm tall, 28 days old, 0.25 lb ai/acre, 7 DAT) was 80%, the “Percent Control” value ([2]; 5-7 leaves, cut to 6 cm tall, 28 days old, 0.25 lb ai/acre, 14 DAT) was 80% and the “Percent Control” value ([2]; 5-7 leaves, cut to 6 cm tall, 28 days old, 0.25 lb ai/acre, 21 DAT) was 90%. For the same compound, the “Percent Control” value ([2]; 5-7 leaves, cut to 6 cm tall, 28 days old, 0.375 lb ai/acre, 1 DAT) was 0%, the “Percent Control” value ([2]; 5-7 leaves, cut to 6 cm tall, 28 days old, 0.375 lb ai/acre, 3 DAT) was 90% and the “Percent Control” value ([2]; 5-7 leaves, cut to 6 cm tall, 28 days old, 0.375 lb ai/acre, 7 DAT) was 90%. The “Percent Control” value ([2]; 5-7 leaves, cut to 6 cm tall, 28 days old, 0.375 lb ai/acre, 14 DAT) was 90%, the “Percent Control” value ([2]; 5-7 leaves, cut to 6 cm tall, 28 days old, 0.375 lb ai/acre, 21 DAT) was 90% and the Percent Control ([3]; 2 DAT) was 30%. It also gave a Percent Control ([3]; 7 DAT) of 30%, a Percent Control ([3]; 14 DAT) of 10% and a Percent Control ([3]; 20 DAT) of 0%.
